# Assay results from patent EP4467141A1, “PYRAZOLO-QUINOLINES AS SELECTIVE INHIBITORS OF GENOTOXIC STRESS-INDUCED IKK/NF- KB PATHWAYS FOR CANCER THERAPY” (Max-Delbrück-Centrum für Molekulare Medizin in der …, priority 2023, dated 2024).
# Legend:
# Test in all cases: Kinase panel study
# Format in all cases: biochemical
# Settings in all cases: read-out: Percentage of inhibition; for inhibition at 1 µM: 1000nM; for inhibition at 10 µM: 10000nM
# EPHB2 = biological target: T1, EPHB2 (Homo sapiens, UniProt P29323)
# T1 construct: purchased Thermo Fisher Scientific
# T1 sequence (P29323 19-1055): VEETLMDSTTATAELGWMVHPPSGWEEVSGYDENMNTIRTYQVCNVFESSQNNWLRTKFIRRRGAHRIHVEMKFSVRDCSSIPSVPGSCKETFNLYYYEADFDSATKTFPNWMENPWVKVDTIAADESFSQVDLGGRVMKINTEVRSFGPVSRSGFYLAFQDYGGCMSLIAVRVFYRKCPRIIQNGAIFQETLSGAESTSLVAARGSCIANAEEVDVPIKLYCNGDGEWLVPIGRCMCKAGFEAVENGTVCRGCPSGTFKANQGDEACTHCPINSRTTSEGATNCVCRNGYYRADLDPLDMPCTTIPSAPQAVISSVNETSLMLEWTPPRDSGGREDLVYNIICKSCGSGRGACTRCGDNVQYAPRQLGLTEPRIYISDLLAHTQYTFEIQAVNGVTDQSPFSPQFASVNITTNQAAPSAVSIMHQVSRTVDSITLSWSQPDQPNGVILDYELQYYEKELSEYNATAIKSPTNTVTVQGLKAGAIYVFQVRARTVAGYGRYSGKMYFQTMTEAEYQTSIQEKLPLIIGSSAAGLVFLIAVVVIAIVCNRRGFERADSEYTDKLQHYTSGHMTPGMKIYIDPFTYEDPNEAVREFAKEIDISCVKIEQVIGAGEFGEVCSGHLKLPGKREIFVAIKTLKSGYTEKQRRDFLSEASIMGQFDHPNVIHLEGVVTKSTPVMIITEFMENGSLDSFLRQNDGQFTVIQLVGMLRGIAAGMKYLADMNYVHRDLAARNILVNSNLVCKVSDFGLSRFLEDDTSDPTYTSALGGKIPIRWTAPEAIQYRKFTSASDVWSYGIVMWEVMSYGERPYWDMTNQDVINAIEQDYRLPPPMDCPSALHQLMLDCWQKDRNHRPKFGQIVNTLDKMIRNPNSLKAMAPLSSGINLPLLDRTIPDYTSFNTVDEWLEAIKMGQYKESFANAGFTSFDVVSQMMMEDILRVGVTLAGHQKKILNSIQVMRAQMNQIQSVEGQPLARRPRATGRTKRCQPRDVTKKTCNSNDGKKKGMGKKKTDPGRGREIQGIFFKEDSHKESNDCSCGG
# In short: (§1)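 Outsourced panel screen. Format: ZLyte or Adapta, run per the manufacturer's procedures. Read-out: inhibition (%) at a single dose of 10 µM or 1 µM; IC50s also generated.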
# STK25 (YSK1) = biological target: T2, STK25 (YSK1) (Homo sapiens, UniProt O00506)
# T2 construct: purchased Thermo Fisher Scientific
# In short: as §1
# ABL1 E255K = biological target: T3, ABL1 E255K (Homo sapiens, UniProt P00519, E255K)
# T3 construct: purchased Thermo Fisher Scientific
# In short: as §1
# ADRBK2 (GRK3) = biological target: T4, ADRBK2 (GRK3) (Homo sapiens, UniProt P35626)
# T4 construct: purchased Thermo Fisher Scientific
# T4 sequence (P35626 1-688): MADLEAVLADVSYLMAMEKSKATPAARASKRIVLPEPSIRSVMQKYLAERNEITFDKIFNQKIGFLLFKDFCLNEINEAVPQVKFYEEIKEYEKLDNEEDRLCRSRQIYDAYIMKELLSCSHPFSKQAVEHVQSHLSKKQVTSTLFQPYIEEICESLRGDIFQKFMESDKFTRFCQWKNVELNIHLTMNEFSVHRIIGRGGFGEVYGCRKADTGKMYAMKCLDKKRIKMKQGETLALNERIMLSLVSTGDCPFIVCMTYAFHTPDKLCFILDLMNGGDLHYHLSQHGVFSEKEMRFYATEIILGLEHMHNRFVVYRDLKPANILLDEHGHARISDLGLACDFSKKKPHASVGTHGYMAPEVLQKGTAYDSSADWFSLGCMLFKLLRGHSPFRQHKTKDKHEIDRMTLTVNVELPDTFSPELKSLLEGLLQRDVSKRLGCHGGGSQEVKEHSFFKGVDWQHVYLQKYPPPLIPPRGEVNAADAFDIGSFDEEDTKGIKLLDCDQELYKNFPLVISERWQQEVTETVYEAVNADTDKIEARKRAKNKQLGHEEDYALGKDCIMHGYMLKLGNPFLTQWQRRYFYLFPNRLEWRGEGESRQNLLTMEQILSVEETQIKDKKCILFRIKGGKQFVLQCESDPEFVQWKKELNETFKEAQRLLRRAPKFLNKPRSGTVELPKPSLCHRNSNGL
# In short: as §1
# T3 sequence (P00519 whole entry E255K): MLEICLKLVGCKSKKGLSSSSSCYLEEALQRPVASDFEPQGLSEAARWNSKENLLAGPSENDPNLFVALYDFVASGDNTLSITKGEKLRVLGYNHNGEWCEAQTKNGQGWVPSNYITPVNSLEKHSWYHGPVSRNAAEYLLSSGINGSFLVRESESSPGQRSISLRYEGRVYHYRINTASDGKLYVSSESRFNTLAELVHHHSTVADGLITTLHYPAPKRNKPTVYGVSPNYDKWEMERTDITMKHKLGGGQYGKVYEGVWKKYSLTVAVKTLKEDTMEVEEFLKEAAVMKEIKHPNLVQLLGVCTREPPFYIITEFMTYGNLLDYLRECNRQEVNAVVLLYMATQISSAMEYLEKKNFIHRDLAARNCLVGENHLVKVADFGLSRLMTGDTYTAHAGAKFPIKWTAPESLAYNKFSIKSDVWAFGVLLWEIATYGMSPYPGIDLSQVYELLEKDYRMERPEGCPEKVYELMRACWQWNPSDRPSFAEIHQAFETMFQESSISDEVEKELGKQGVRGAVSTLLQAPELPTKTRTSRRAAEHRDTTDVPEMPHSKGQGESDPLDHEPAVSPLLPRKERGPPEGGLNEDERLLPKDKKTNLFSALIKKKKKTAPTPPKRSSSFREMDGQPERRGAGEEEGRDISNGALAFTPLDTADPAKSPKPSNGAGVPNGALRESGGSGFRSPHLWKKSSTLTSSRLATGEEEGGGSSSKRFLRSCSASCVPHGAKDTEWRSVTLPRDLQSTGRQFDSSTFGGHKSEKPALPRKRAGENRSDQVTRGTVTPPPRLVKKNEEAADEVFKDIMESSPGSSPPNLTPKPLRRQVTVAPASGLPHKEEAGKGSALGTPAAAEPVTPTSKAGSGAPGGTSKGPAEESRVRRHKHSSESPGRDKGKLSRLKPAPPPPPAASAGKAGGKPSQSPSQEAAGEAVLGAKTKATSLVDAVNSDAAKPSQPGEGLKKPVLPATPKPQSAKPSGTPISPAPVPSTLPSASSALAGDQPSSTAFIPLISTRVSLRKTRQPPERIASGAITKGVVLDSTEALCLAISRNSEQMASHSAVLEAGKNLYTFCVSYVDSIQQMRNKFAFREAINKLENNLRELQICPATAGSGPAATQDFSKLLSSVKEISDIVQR
# T2 sequence (O00506 whole entry): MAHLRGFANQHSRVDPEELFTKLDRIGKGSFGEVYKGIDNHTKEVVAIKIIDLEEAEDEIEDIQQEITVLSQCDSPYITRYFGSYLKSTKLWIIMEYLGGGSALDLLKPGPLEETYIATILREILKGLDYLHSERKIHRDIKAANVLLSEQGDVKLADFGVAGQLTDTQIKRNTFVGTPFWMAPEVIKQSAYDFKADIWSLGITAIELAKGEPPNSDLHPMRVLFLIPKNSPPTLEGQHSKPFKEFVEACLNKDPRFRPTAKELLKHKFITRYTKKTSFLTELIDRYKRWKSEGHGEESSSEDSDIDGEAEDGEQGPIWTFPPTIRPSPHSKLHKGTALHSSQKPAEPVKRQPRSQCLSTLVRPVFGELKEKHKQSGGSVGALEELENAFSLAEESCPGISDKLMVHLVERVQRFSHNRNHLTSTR
Structure (SMILES),inhibition at 1 µM (EPHB2) [%],inhibition at 10 µM (EPHB2) [%],inhibition at 1 µM (STK25 (YSK1)) [%],inhibition at 10 µM (STK25 (YSK1)) [%],inhibition at 1 µM (ABL1 E255K) [%],inhibition at 10 µM (ABL1 E255K) [%],inhibition at 1 µM (ADRBK2 (GRK3)) [%],inhibition at 10 µM (ADRBK2 (GRK3)) [%]
"COc1ccc2cc3c(N)nn(C(=O)c4cccc(N(C)C)c4)c3nc2c1 [MW05, (3-Amino-7-methoxypyrazolo[3,4-b]quinolin-1-yl)-[3-(dimethylamino)phenyl]methanone]",6,1,-3,-11,6,5,2,-3
"COc1ccc2c(c1OC)c(=O)n1c3ccc(O)cc3c3ccnc2c31 [MW01, 5-Hydroxy-10,11-dimethoxy-9H-benzo[c]indolo[3,2,1-ij][1,5]naphthyridin-9-one]",10,17,-9,-3,7,11,0,5
